In patent US9119777B2 (MICRODOSE THERAPEUTX, INC., priority 2008, dated 2015):
Read-outs that look alike come from different tables or passages of the source.

Columns and labels:
[1] = in vivo; cited from earlier work
[2] = system: receptors in the salivary glands; details: cited from earlier work
[3] = Pharmacokinetic profile following dry powder insufflation; assay type: in vivo, guinea pig; details: anaesthetized guinea pigs, dry powder insufflation of oxybutynin
[4] = cited from earlier work
[5] = cited from earlier work; remark: listed apart in the source
[6] = system: mean arterial blood pressure and heart rate; assay: Mean arterial blood pressure and heart rate after pulmonary delivery; assay type: in vivo, guinea pig
Excerpt: (§1) Each point represents the mean value and the vertical bars show s.e. mean.

[7] = system: methacholine induced bronchoconstriction; assay: Methacholine induced bronchoconstriction after pulmonary (i.t.) dry powder delivery; assay type: in vivo, guinea pig
Excerpt: Each bar represents the mean value and the vertical lines show s.e. mean.
as §1

CC1(C)O[C@@H]2C[C@H]3[C@@H]4CCC5=CC(=O)C=C[C@]5(C)[C@@]4(F)[C@@H](O)C[C@]3(C)[C@]2(C(=O)CO)O1 [triamcinolone acetonide]
Mean absorption time in the lungs [1]: 2.9 h

CCNCC#CCOC(=O)C(O)(c1ccccc1)C1CCCCC1 (centres unmarked) [DEO, N-desethyloxybutynin]
Affinity and binding duration at receptors in the salivary glands, compared with oxybutynin [2]: greater affinity and binding duration | Systemic levels of DEO resulting from pulmonary delivery [3]: below the LOQ of the detection method | Levels of DEO ([4]; oral therapy): 10 to 40 ng/mL | DEO circulating concentration relative to parent compound ([4]; oxybutynin ER, oral): approximately 4 times | DEO circulating concentration relative to parent compound ([4]; oxybutynin IR, oral): approximately 10 times | Levels of DEO ([4]; transdermal therapy): ~3 ng/mL

CCN(CC)CC#CCOC(=O)C(O)(c1ccccc1)C1CCCCC1 (racemic) [oxybutynin, 4-diethylaminobut-2-butynyl phenylcyclohexyl-glycolate]
pKa [5]: 8.24 | Effect on arterial pressure and heart rate ([6]; guinea pig model of bronchoconstriction): without a prolonged significant effect on arterial pressure and heart rate | Influence on cardiovascular conditions, compared with Tiotropium ([6]; oxybutynin xinafoate, pulmonary, first 6 hours, anaesthetized guinea pigs): did not have as significant an influence on cardiovascular conditions | Bronchoprotective effect in guinea pig model of bronchoconstriction [7]: significantly bronchoprotective effect from 0.25 to 24 hours | Oral half life ([4]; oral): 2.5 h

CCC(=O)O[C@]1(C(=O)SCF)[C@H](C)C[C@H]2[C@@H]3C[C@H](F)C4=CC(=O)C=C[C@]4(C)[C@@]3(F)[C@@H](O)C[C@@]21C [fluticasone propionate]
Mean absorption time in the lungs [1]: 5 to 7 h

O=C(O)c1ccc2ccccc2c1O [xinafoic acid]
pKa [5]: 2.7
